Experiment [1] relates to T-cell activation. Nature of the experiment: In vitro inhibition of T-cell activation (summary statements). Type of experiment: cell-based.
The test system of experiment [2] is BALB/c mice primed with TNCB. Kind of experiment: Delayed type hypersensitivity (DTH) suppression model. As to conditions: single subcutaneous administration; peptide 10, 50, 100 μM; scramble 100 μM. The class given is in vivo, mouse. As to the method:
Delayed type hypersensitivity (DTH) suppression was evaluated as described in the “Current Protocols in Immunology (2001) 4.0.1-4.0.2 Unit 4.2”. Briefly, TNCB (2-chloro-1,3,5-trinitrobenzene, Fluka #79874) was dissolved in acetone/olive oil (1:1 v/v) at a concentration of 10 mg/ml. BALB/c mice (n=6/group) were primed by painting the shaved regions of the abdomen a with a total 0.2 ml of the preparation (n=6/group). The experiment included 3 groups for peptide 551-574 (10, 50, 100 μM) and 1 group treated with scramble peptide at 100 μM). Five days after priming, 10 μl of the TNCB-solvent mixture was painted on the right pinna, 30 minutes after subcutaneous (interscapolar) administration of the peptide 551-574 or the scramble peptide. Ear thickness increases were calculated by subtracting the thickness of the right and the left pinna of each mouse (right-left/left×100), measured at 24 h with a dial caliper (“Pocotest”, Kroeplin Längenmesstechnick). The measure was performed 5 times on each ear and averaged for further analysis. The immunosuppressive effect of the peptide was calculated as % suppression=(1−ΔTE/ΔTS)×100, where ΔT=(ear thickness 24 hr after elicitation)−(baseline ear thickness), […]. Data are expressed as mean±SEM.

The test system of experiment [3] is spleen cells from C57Bl/6 (CD31^+/+) mice. Nature of the experiment: Proliferation in response to TCR stimulation, CD31+/+ spleen cells. Type of experiment: cell-based, mouse. As to conditions: peptide 25, 50, 100 μM; scramble peptide 100 μM. Here is the method: CD8^+ T cell-mediated cytolytic activity against allogeneic mouse aortic smooth muscle cells and measurement of macrophage gelatinase (MMP-2/9) activity were performed as previously described for human cells in Caligiuri et al. (2006 Arterioscler Thromb Vasc Biol 26:618-623) using kits and reagents from Invitrogen. Briefly, primary cultures of FVB/N mouse aorta smooth muscle cells were labelled with the lipophylic tracer DIO (green) and co-cultured for 3 hours with CD8+ T cell-enriched spleen cells from C57Bl/6 mice (n=3 scramble peptide and n=3 peptide 551-574, 50 μM). Cytolysis was evaluated by intracellular accumulation of propidium iodide (PI). Cells were analysed by flow cytometry and the % of cytolysis was calculated by expressing the number of dead (PI+) cells among the target (DIO+) cells. Intracellular MMP-2/9 (gelatinase) activity was measured by flow cytometry in 7-day bone-marrow derived macrophages from C57Bl/6 mice (n=3 scramble peptide and n=3 peptide 551-574, 50 μM) three hours after the incorporation of OregonGreen® gelatine (MFI). T-cell proliferation was performed using either human peripheral blood mononuclear cells of spleen cells from C57Bl/6 (CD31^+/+) and CD31^−/− mice (Charles River France) as previously described (Caligiuri et al. 2005 Arterioscler Thromb Vasc Biol 25:1659-1664). Briefly, cells were plated in triplicates at 0.2×10^6 cells/well in a U bottom 96-well plate in complete medium (RPMI 1640, 1% pyruvate, 1% glutamine, 1% penicillin-streptomicyne-fungizone, 10% decomplemented fetal calf serum, all from Invitrogen) containing 1 μg/ml anti-mouse CD3/CD28 or 5 μg/ml anti-human CD3 antibodies (BD) as appropriate. CD31 (551-574) and scramble peptide at 25, 50 and 100 μM final concentration were deposited in the wells just before cell plating. Plated cells were cultured for 72 hours in 5% CO2 at 37° C. (^3H) thymidine (0.5 μCi/well) was added for the last 16 hours and proliferation evaluated using a Tomtec harvester and analysis on a Wallac micro beta counter. Data are expressed as mean±SEM of cpm in triplicates.

The test system of experiment [4] is C57BL/6J mice immunized with MOG35-55 peptide. Nature of the experiment: Experimental Autoimmune Encephalomyelitis (EAE) model. Type of experiment: in vivo, mouse. As to the method:
Twelve-week old female C57BL/6J mice were immunized with 300 μg of MOG35-55 peptide emulsified in Complete Freund's Adjuvant 1:1 by volume containing 800 μg of nonviable desiccated Mycobacterium tuberculosis H37RA. A final volume of 200 μl of the emulsion was injected subcutaneously at 4 sites (50 μl/site) over the flanks. In addition, 300 ng of Pertussis toxin was injected intravenously (retro-orbital plexus) on the same day and 2 days later. Clinical signs of EAE ware assessed daily by the following scoring system: 0, no signs; 1, hindlimb weakness; 2, hindlimb weakness and tail paralysis; 3, hindlimb and tail paralysis; 4, hindlimb and tail paralysis and forelimb weakness; 5, moribund state; and 6, death. The peak (waxing phase) occured around day 21. In this C57BL/6J mouse model, there was no waning phase as assessed in our laboratory up to day 41.
The experiment was carried out with ten mice per group. The mice of each group were treating with either of: • PBS; • PepReg (SEQ ID NO: 3); or • PepScra (SEQ ID NO: 14).
The dosing was of 50 μg of peptide per mice and per day (i.e. about 2 mg/Kg per day). The peptide was administered by a subcutaneous injection.

Experiment [5] deals with CD4+ cells from C57Bl6 mice. Nature of the experiment: CD4+ T cell activation, early activation marker CD69 by flow cytometry. Type of experiment: cell-based, mouse. Particulars: 18 hours culture. Here is the method: Alternatively, the T-cell proliferation assay may comprise comparing expression levels of the early activation marker CD69 in T-cells cultured either in the presence or in the absence of the compound to be tested. This assay may for example be performed as follows: • providing purified CD4+ cells (e.g. purified from C57B16 mice); • stimulating said CD4+ cells by addition of anti-CD3 purified antibodies and bone marrow derived dendritic cells; • culturing the cells for about 18 hours; and • analyzing said cells for the expression of the early activation marker CD69, e.g. by flow cytometry; and • comparing CD69 expression in the presence of the compound to be tested.
The immunosuppressive properties of PepReg (10aa) vs the 23 aa parent peptide were evaluated in vitro. Negatively purified CD4+ cells from C57Bl6 mice were stimulated by soluble anti-CD3 purified antibodies and bone marrow derived dendritic cells. Cells from triplicate wells were analyzed for the expression of the early activation marker CD69 after 18 hours culture in complete RPMI medium supplemented with 10% fetal calf serum.
In general terms: In flow cytometry, cells or beads pass a laser one at a time.

Experiment [6] relates to T cell proliferation. Nature of the experiment: Suppression of T cell proliferation by [H3] thymidin incorporation, long culture. Type of experiment: cell-based, mouse. As to conditions: culture at 37° C. in 10% serum.
Where [7] appears, read: associated with disease protection.

Entries after “also recorded” stand apart in the source; their conditions may differ.

The values below come from patent US10253085B2, “CD31 peptides for the treatment of thrombotic or autoimmune disorders” (INSERM (INSTITUT NATIONAL DE LA SANTE ET DE LA RECHERCHE …, priority 2008, dated 2019).

For “LAPWKK (mouse or human-derived CD31 peptide) [SEQ ID NO: 2]”, the “inhibition of T-cell activation” value in experiment [1] is recorded as “capable of inhibiting T-cell activation”.

In the case of “NH2 - SMPAVRSRFSATSLVTLKSRWPK -COOH (H-SMPAVRSRFSATSLVTLKSRWPK-OH) [scramble peptide, scramble peptide used as control for the 23-mer, reference compound]”, the “suppression of distal recall of a hapten-elicited specific immune response (ear thickness)” value in experiment [2] was “ineffective”. Further, in experiment [3], the “proliferation of CD31+/+ spleen cells in response to TCR stimulation” value is “No effect; also recorded: ineffective”.

With “VRVFLAPWKK (mouse-derived CD31 peptide) [PepReg, ten COOH terminal amino acids of mouse CD31 peptide]”, in experiment [4] (setting [7]), the “infiltration of IL17+ and IFNg+ T helper CD4+ cells in the central nervous system” value is “reduced infiltration”. Further, the “proportion of regulatory CD25+/foxP3 CD4+ cells in the central nervous system” value in experiment [4] (setting [7]) is recorded as “increased proportion”. The “clinical score of EAE activity (paralysis level)” value is recorded as “reducing disease extension” in experiment [4] (plateau phase (Days 21 through to 35), 50 μg per mice per day subcutaneous) and “arresting disease development” in experiment [4] (waxing phase (Day 15), 50 μg per mice per day subcutaneous). The “dose at which suppression of CD69 expression was observed” value in experiment [5] came to 50 µg/mL. In experiment [5] (anti-CD3 and dendritic cells), the “suppression of T cell activation (percentage of CD4 cells expressing CD69)” value is listed as “at least as efficient as the 23aa peptide”. Besides, in experiment [1], the “inhibition of T-cell activation” value was “capable of inhibiting T-cell activation”. Moreover, the “persistence of suppression of T cell proliferation” value in experiment [6] was “up to 7 days”.

“scrambled peptide: scramble peptide of SEQ ID NO: 14 used as control for PepReg; sequence not printed (WPKLRKFVAV; scramble peptide) [reference compound]”: the “beneficial effect in EAE model” value in experiment [4] (50 μg per mice per day subcutaneous) is given as “beneficial, although less than PepReg”.
